Assay results taken from patent US10710978B2, “STK4 inhibitors for treatment of hematologic malignancies” (Dana-Farber Cancer Institute, Inc., priority 2015, dated 2020).
Where two headings read alike, the source gives them in different places.

Columns and labels:
Assay in all cases: KiNativ assay
Format in all cases: binding
NEK3 = NEK3 (Homo sapiens (Human), UniProt P51956); settings: H929 live cell
Description: (§1) Biochemical IC50s of the compounds of the present disclosure against various kinases were measured in a KiNativ assay. Compounds were screened in duplicate at 10 μM in H929 live cell. IC50 was measured via Mass spectroscopy (MS).

MPSK1 = MPSK1 (Homo sapiens (Human), UniProt O75716); settings: H929 live cell
Description: as §1

PIP5K3 = PIP5K3 (Homo sapiens (Human), UniProt Q9Y2I7); settings: H929 live cell
Description: as §1

AMPKa1, AMPKa2 = settings: H929 live cell; for % inhibition: 10 μM, range class
Description: as §1

PKD2 = PKD2 (Homo sapiens (Human), UniProt Q9BZL6); settings: H929 live cell
Description: as §1

IRAK4 = IRAK4 (Homo sapiens (Human), UniProt Q9NWZ3); settings: H929 live cell
Description: as §1

PFTAIRE1 = PFTAIRE1 (Homo sapiens (Human), UniProt O94921); settings: H929 live cell
Description: as §1

TAO2 = TAO2 (Homo sapiens (Human), UniProt Q9UL54); settings: H929 live cell
Description: as §1

TLK1 = TLK1 (Homo sapiens (Human), UniProt Q9UKI8); settings: H929 live cell
Description: as §1

TBK1 = TBK1 (Homo sapiens (Human), UniProt Q9UHD2); settings: H929 live cell
Description: as §1

MST1 = MST1 (Homo sapiens (Human), UniProt Q13043); settings: H929 live cell
Description: as §1

JAK1 domain1 = JAK1 domain1 (Homo sapiens (Human), UniProt P23458); settings: H929 live cell
Description: as §1

CSK = CSK (Homo sapiens (Human), UniProt P41240); settings: H929 live cell
Description: as §1

[1] = tested on: ZC1/HGK, ZC2/TNIK, ZC3/MINK; settings: H929 live cell; for % inhibition: 10 μM, range class
Description: as §1

NuaK2 = NuaK2 (Homo sapiens (Human), UniProt Q9H093); settings: H929 live cell
Description: as §1

MAP2K1, MAP2K2 = settings: 10 μM, H929 live cell; range class
Description: as §1

CDK11, CDK8 = settings: H929 live cell; for % inhibition: 10 μM, range class
Description: as §1

CaMK1d = CaMK1d (Homo sapiens (Human), UniProt Q8IU85); settings: H929 live cell
Description: as §1

TLK2 = TLK2 (Homo sapiens (Human), UniProt Q86UE8); settings: H929 live cell
Description: as §1

FYN, SRC, YES = settings: H929 live cell; for % inhibition: 10 μM, range class
Description: as §1

CaMK2d = CaMK2d (Homo sapiens (Human), UniProt Q13557); settings: H929 live cell
Description: as §1

NEK7 = NEK7 (Homo sapiens (Human), UniProt Q8TDX7); settings: H929 live cell
Description: as §1

NEK6, NEK7 = settings: H929 live cell; for % inhibition: 10 μM, range class
Description: as §1

[2] = range class, read-out: % inhibition

Chain of CaMK1d (Q8IU85 whole entry): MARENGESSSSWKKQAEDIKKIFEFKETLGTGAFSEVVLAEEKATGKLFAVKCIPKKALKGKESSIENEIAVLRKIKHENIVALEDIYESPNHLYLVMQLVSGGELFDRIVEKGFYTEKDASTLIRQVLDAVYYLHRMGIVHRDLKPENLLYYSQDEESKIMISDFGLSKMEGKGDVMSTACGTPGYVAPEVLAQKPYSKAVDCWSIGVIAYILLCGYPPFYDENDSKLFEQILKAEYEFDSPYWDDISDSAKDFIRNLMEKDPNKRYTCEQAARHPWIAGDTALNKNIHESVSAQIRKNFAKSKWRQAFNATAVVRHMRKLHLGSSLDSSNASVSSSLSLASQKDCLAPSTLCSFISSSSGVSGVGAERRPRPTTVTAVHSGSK
Chain of PFTAIRE1 (O94921 whole entry): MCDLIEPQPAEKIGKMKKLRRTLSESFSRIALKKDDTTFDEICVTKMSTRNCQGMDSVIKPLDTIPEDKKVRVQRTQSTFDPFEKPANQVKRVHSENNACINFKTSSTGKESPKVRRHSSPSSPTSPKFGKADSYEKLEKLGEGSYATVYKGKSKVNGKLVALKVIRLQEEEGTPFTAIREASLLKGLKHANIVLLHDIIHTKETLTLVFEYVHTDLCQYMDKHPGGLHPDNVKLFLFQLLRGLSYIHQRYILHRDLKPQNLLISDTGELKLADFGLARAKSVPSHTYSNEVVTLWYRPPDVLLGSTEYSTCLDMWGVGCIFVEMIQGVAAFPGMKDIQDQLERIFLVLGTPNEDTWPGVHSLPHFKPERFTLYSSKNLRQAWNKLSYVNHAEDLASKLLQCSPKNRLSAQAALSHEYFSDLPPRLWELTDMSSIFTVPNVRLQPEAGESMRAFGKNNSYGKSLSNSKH
Chain of PFTAIRE1 (Q8ND76 whole entry partner): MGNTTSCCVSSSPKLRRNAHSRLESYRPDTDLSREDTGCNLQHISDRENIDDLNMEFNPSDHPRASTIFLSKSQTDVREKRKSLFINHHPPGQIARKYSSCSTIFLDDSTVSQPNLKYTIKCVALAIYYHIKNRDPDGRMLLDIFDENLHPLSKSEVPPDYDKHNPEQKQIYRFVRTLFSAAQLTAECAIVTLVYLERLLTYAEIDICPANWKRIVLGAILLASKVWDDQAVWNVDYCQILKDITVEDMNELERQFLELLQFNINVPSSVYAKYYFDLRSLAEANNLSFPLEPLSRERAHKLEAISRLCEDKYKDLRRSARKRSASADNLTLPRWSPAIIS
Chain of MST1 (Q13043 whole entry): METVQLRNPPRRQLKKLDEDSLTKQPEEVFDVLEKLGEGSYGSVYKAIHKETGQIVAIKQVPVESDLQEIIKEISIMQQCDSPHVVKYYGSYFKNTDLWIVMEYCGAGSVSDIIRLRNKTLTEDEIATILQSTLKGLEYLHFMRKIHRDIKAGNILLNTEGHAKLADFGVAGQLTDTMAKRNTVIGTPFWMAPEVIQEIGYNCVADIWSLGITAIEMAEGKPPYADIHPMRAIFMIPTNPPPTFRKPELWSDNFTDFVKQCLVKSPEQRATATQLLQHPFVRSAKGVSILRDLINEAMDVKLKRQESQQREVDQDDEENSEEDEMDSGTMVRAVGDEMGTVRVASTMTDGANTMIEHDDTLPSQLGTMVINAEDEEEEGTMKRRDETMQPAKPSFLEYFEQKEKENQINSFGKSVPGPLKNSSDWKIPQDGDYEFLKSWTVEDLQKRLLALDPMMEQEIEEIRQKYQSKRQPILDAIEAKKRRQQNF
Chain of NEK3 (P51956 whole entry): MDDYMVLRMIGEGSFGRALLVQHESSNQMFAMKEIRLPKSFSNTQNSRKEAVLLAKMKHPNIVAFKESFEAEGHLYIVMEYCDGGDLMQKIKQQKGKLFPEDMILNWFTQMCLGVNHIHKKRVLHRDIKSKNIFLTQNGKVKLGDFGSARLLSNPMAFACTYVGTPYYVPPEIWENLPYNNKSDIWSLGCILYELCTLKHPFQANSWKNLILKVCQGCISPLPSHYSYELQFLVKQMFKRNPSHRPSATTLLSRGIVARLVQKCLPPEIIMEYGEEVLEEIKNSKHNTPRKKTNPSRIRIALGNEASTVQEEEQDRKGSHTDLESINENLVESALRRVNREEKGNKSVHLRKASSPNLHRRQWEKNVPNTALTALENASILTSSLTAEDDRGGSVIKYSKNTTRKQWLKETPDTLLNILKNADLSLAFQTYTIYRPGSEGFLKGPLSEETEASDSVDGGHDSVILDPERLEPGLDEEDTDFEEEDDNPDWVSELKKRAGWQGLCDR
Chain of TLK2 (Q86UE8 whole entry): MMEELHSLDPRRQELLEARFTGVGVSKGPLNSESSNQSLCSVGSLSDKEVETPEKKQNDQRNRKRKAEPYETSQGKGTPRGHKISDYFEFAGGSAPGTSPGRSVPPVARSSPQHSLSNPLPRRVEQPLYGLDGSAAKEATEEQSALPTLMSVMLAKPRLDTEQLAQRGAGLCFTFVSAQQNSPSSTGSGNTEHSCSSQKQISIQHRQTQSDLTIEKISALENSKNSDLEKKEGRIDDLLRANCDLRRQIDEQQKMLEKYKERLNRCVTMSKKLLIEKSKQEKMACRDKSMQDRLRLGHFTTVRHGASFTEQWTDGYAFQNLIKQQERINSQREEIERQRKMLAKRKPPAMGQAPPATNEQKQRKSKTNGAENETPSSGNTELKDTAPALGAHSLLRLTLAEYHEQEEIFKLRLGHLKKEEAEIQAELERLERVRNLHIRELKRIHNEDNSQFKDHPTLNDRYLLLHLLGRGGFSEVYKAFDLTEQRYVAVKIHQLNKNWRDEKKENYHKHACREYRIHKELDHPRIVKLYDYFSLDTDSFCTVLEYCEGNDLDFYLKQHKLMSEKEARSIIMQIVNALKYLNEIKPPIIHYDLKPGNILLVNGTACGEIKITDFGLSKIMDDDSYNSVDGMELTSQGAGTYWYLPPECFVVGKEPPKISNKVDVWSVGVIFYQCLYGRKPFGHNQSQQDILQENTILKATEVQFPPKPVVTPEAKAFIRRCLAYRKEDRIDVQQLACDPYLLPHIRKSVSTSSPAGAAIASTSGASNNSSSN
Chain of NuaK2 (Q9H093 whole entry): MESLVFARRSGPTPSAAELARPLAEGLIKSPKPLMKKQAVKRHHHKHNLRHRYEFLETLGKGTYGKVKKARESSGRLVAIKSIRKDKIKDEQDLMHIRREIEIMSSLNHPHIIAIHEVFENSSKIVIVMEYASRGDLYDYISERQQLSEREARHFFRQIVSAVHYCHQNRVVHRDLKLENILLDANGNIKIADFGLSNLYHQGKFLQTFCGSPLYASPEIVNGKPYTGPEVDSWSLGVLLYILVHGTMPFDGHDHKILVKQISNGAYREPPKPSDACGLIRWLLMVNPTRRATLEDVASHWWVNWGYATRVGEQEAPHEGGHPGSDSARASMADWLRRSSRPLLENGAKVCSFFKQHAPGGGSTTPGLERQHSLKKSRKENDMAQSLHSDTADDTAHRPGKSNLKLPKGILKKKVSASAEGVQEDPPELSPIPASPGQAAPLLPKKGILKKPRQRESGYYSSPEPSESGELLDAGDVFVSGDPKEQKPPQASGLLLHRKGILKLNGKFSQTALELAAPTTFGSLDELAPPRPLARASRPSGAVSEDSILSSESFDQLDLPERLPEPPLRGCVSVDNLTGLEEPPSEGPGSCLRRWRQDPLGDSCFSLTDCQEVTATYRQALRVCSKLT
Chain of MPSK1 (O75716 whole entry): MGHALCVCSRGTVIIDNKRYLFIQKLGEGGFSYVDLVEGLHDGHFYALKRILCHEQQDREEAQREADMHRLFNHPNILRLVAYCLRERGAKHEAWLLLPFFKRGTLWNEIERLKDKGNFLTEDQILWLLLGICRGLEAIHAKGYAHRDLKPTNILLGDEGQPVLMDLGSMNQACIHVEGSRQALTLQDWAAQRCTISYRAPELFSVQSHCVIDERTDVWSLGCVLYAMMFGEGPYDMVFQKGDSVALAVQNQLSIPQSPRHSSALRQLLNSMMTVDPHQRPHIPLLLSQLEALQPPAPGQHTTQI
Chain of IRAK4 (Q9NWZ3 whole entry): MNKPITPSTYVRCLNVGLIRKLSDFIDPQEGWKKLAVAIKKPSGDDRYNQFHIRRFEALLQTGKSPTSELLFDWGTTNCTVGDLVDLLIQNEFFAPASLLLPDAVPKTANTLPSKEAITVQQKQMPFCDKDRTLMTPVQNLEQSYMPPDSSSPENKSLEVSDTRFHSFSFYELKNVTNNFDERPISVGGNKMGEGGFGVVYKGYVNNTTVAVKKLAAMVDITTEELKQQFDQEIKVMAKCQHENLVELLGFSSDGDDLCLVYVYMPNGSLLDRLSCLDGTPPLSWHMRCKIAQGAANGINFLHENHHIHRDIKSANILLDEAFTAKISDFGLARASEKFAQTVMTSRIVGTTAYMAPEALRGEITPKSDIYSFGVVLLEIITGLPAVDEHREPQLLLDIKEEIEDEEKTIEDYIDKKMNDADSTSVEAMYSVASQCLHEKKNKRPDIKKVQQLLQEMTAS
Chain of CaMK2d (Q13557 whole entry): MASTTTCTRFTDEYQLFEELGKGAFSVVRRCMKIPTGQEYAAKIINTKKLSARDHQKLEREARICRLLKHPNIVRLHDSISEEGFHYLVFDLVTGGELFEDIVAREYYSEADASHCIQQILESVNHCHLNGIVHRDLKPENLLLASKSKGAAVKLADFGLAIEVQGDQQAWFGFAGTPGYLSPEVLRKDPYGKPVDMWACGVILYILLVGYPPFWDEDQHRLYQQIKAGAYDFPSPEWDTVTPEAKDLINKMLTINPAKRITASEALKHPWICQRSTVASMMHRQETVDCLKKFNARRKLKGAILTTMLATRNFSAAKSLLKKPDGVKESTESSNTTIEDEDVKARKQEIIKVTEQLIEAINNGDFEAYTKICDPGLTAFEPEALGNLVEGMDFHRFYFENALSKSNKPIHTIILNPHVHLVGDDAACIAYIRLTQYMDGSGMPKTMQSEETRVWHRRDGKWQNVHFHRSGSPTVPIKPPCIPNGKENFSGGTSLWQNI

COc1cc(NS(=O)(=O)C2CC2)ccc1-c1cnc(N)c(-c2ccc3c(c2)CCNC3=O)c1 [Compound I-50, N-(4-(6-amino-5-(1-oxo-1,2,3,4-tetrahydroisoquinolin-6-yl)pyridin-3-yl)-3-methoxyphenyl) cyclopropanesulfonamide]
inhibition at 10 µM (NEK3; [2]): 0%
inhibition at 10 µM (NEK3; read-out: inhibition (10 μM)): -9.9%
inhibition at 10 µM (MPSK1; [2]): 0%
inhibition at 10 µM (MPSK1; read-out: inhibition (10 μM)): 15.7%
inhibition at 10 µM (PIP5K3; [2]): 75 to 90%
inhibition at 10 µM (PIP5K3; read-out: inhibition (10 μM)): 79.7%
% inhibition (AMPKa1, AMPKa2): 0.0%
inhibition (10 μM) (AMPKa1, AMPKa2): −8.2%
inhibition at 10 µM (PKD2; [2]): 50 to 75%
inhibition at 10 µM (PKD2; read-out: inhibition (10 μM)): 51.5%
inhibition at 10 µM (IRAK4; [2]): 0%
inhibition at 10 µM (IRAK4; read-out: inhibition (10 μM)): 19.6%
inhibition at 10 µM (PFTAIRE1; [2]): 0%
inhibition at 10 µM (PFTAIRE1; read-out: inhibition (10 μM)): -2.4%
inhibition at 10 µM (TAO2; [2]): 0%
inhibition at 10 µM (TAO2; read-out: inhibition (10 μM)): 9%
inhibition at 10 µM (TLK1; [2]): 0%
inhibition at 10 µM (TLK1; read-out: inhibition (10 μM)): -7.5%
inhibition at 10 µM (TBK1; [2]): 0%
inhibition at 10 µM (TBK1; read-out: inhibition (10 μM)): 31.4%
inhibition at 10 µM (MST1; [2]): > 90%
inhibition at 10 µM (MST1; read-out: inhibition (10 μM)): 97.5%
inhibition at 10 µM (JAK1 domain1; [2]): 0%
inhibition at 10 µM (JAK1 domain1; read-out: inhibition (10 μM)): -19.8%
inhibition at 10 µM (CSK; [2]): 0%
inhibition at 10 µM (CSK; read-out: inhibition (10 μM)): -4.3%
% inhibition [1]: >90%
inhibition (10 μM) [1]: 96.3%
inhibition at 10 µM (NuaK2; [2]): 35 to 40%
inhibition at 10 µM (NuaK2; read-out: inhibition (10 μM)): 40.8%
% inhibition (MAP2K1, MAP2K2): 0.0%
% inhibition (CDK11, CDK8): 35-40%
inhibition (10 μM) (CDK11, CDK8): 38.1%
inhibition at 10 µM (CaMK1d; [2]): 0%
inhibition at 10 µM (CaMK1d; read-out: inhibition (10 μM)): 10.6%
inhibition at 10 µM (TLK2; [2]): 0%
inhibition at 10 µM (TLK2; read-out: inhibition (10 μM)): -3%
% inhibition (FYN, SRC, YES): 0.0%
inhibition (10 μM) (FYN, SRC, YES): −2.0%
inhibition at 10 µM (CaMK2d; [2]): 0%
inhibition at 10 µM (CaMK2d; read-out: inhibition (10 μM)): 15.9%
inhibition at 10 µM (NEK7; [2]): 0%
inhibition at 10 µM (NEK7; read-out: inhibition (10 μM)): -18.9%
% inhibition (NEK6, NEK7): 0.0%
inhibition (10 μM) (NEK6, NEK7): −54.5%

Nc1ncc(-c2ccc(NS(=O)(=O)C3CC3)cc2F)cc1-c1ccc2c(c1)CCNC2=O [Compound I-51, N-(4-(6-amino-5-(1-oxo-1,2,3,4-tetrahydroisoquinolin-6-yl)pyridin-3-yl)-3-fluorophenyl) cyclopropanesulfonamide]
inhibition at 10 µM (NEK3; [2]): 0%
inhibition at 10 µM (NEK3; read-out: inhibition (10 μM)): -13%
inhibition at 10 µM (MPSK1; [2]): 35 to 40%
inhibition at 10 µM (MPSK1; read-out: inhibition (10 μM)): 43.9%
inhibition at 10 µM (PIP5K3; [2]): 75 to 90%
inhibition at 10 µM (PIP5K3; read-out: inhibition (10 μM)): 84.7%
% inhibition (AMPKa1, AMPKa2): 0.0%
inhibition (10 μM) (AMPKa1, AMPKa2): −20.5%
inhibition at 10 µM (PKD2; [2]): 50 to 75%
inhibition at 10 µM (PKD2; read-out: inhibition (10 μM)): 73.2%
inhibition at 10 µM (IRAK4; [2]): 0%
inhibition at 10 µM (IRAK4; read-out: inhibition (10 μM)): 16.4%
inhibition at 10 µM (PFTAIRE1; [2]): 0%
inhibition at 10 µM (PFTAIRE1; read-out: inhibition (10 μM)): 8.8%
inhibition at 10 µM (TAO2; [2]): 35 to 40%
inhibition at 10 µM (TAO2; read-out: inhibition (10 μM)): 40.9%
inhibition at 10 µM (TLK1; [2]): 0%
inhibition at 10 µM (TLK1; read-out: inhibition (10 μM)): -11.8%
inhibition at 10 µM (TBK1; [2]): 35 to 40%
inhibition at 10 µM (TBK1; read-out: inhibition (10 μM)): 35.8%
inhibition at 10 µM (MST1; [2]): > 90%
inhibition at 10 µM (MST1; read-out: inhibition (10 μM)): 96.3%
inhibition at 10 µM (JAK1 domain1; [2]): 0%
inhibition at 10 µM (JAK1 domain1; read-out: inhibition (10 μM)): -8.2%
inhibition at 10 µM (CSK; [2]): 0%
inhibition at 10 µM (CSK; read-out: inhibition (10 μM)): 6.9%
% inhibition [1]: >90%
inhibition (10 μM) [1]: 97.2%
inhibition at 10 µM (NuaK2; [2]): 35 to 40%
inhibition at 10 µM (NuaK2; read-out: inhibition (10 μM)): 45.1%
% inhibition (MAP2K1, MAP2K2): 0.0%
% inhibition (CDK11, CDK8): 0.0%
inhibition (10 μM) (CDK11, CDK8): 31.8%
inhibition at 10 µM (CaMK1d; [2]): 0%
inhibition at 10 µM (CaMK1d; read-out: inhibition (10 μM)): -1.7%
inhibition at 10 µM (TLK2; [2]): 0%
inhibition at 10 µM (TLK2; read-out: inhibition (10 μM)): -20.1%
% inhibition (FYN, SRC, YES): 0.0%
inhibition (10 μM) (FYN, SRC, YES): −36.4%
inhibition at 10 µM (CaMK2d; [2]): 0%
inhibition at 10 µM (CaMK2d; read-out: inhibition (10 μM)): 2.3%
inhibition at 10 µM (NEK7; [2]): 0%
inhibition at 10 µM (NEK7; read-out: inhibition (10 μM)): -50.3%
% inhibition (NEK6, NEK7): 0.0%
inhibition (10 μM) (NEK6, NEK7): −63.6%
